A short description of series [1]: UV-vis absorption spectra and molar absorptivity coefficient. It is filed as physicochemical. The following applies: 20 μM. How it is done:
A stock solution in dichloromethane (CH2Cl2) of each compound was prepared at a concentration of 4000 µM. From the stock solution, solutions were prepared at a concentration of 20 µM of each compound in four different solvents: hexane, CH2Cl2, dimethyl sulfoxide (DMSO), and methanol (CH3OH). Then, measurement in the range of 190 to 800 nm was performed, with the wavelengths of maximum absorption (λmax) of the compounds in the different solvents shown in Table S1 and Figure S8.
The molar absorptivity coefficient (εAbs) was determined using an equation applied by Lambert–Beer (εAbs = A/LxC, where A—maximum absorbance; L—the optical path of the cuvette used (1 cm); and C—concentration of the analyzed sample in M).

Series [2] deals with L929. Briefly: MTT cytotoxicity assay, nontumor murine fibroblast L929. It is filed as cell-based. The following applies: Mus musculus, 72 h exposure. How it is done:
(§1) The cytotoxic activity of the naphth[1,2-d]imidazoles IM1–IM7 was assessed through colorimetric MTT assay. The ability of these compounds to inhibit cell growth against human glioblastoma (SNB-19), human colorectal carcinoma (HCT-116), and human promyelocytic leukemia (HL-60) cell lines was evaluated. The IC50 was determined for those compounds, returning a percentage inhibition of cell growth above 75% in at least two tested cell lines. […] Doxorubicin was used as the positive control, and cytotoxic activities were expressed as IC50 for all the naphth[1,2-d]imidazoles in Table 2.
(§2) Brain tumor (SNB-19), human colorectal carcinoma (HCT-116), and human promyelocytic leukemia (HL-60) cells were obtained from the National Cancer Institute (NCI) (Bethesda, MD, USA). The L929 cells (mouse fibroblast L cells NCTC clone 929) were purchased from the American Type Culture Collection (Manassas, VA, USA). The cells were grown on RPMI 1640 medium supplemented with 10% fetal bovine serum and 1% antibiotics (penicillin/streptomycin) at 37 °C with 5% CO2.
(§3) Cytotoxic potential of the naphth[1,2-d]imidazoles IM1–IM7 was assessed after 72 h of exposure to the tumor cell lines of human SNB-19, HCT-116, HL-60, and normal cell line L929. Cells were plated in 96-well plates (0.7 × 10^5 cells/well for SNB-19, 0.3 × 10^6 cells/well for HCT-116, and 0.3 × 10^6 cells/well for HL-60). Compounds were dissolved with DMSO at concentrations in the 0.078–10 μg.mL^−1 range. Doxorubicin (0.001–1.10 μM) was used as the positive control, and negative control groups received the same amount of vehicle (DMSO). The cell viability was determined by the reduction of the yellow dye 3-(4,5-dimethyl-2-thiazol)-2,5-diphenyl-2H-tetrazolium bromide (MTT) to a blue formazan product. At the end of the incubation time (69 h), the plates were centrifuged, and the medium was replaced with fresh medium (200 μL) containing 0.5 mg/mL of MTT. Three hours later, the MTT formazan product was dissolved in DMSO (150 μL), and the absorbance was measured using a multi-plate reader (Spectra Count, Packard, ON, Canada). The drug effect was quantified as the percentage of control absorbance of the reduced dye at 550 nm. All experiments were performed in three independent assays, and the half maximal inhibitory concentration (IC50) and their 95% confidence intervals were achieved by nonlinear regression.

Series [3] has as its system HCT-116. Briefly: MTT cytotoxicity assay, human colorectal carcinoma HCT-116. It is filed as cell-based. The following applies: for IC50: Homo sapiens, HCT-116, 72 h exposure, MTT, 95% confidence interval in brackets; for SI HCT-116 (selectivity index): ratio IC50 L929 / IC50 HCT-116. How it is done: as §1, §2, §3
Series [4] is described as follows: Fluorescence emission spectrum and Stokes shift. The class given is physicochemical. The following applies: for λemis (emission wavelength) / fluorescence emission intensity: excitation at 345 nm, 20 μM; for λemis (emission wavelength): solvent per compound: IM1, IM3, IM4, IM5 CH2Cl2, IM2 DMSO, IM6 CH3OH, IM7 hexane, DAPI H2O; for ΔST (Stokes shift): difference between absorption and emission wavelengths, solvent per compound as in Table 1. How it is done:
The stock solutions were diluted to a concentration of 20 µM, and readings used the excitation wavelength of 345 nm for all compounds. […]

Series [5] relates to HL-60. Briefly: MTT cytotoxicity assay, human promyelocytic leukemia HL-60. It is filed as cell-based. The following applies: for IC50: Homo sapiens, HL-60, 72 h exposure, MTT, 95% confidence interval in brackets; for SI HL-60 (selectivity index): ratio IC50 L929 / IC50 HL-60. How it is done: as §1, §2, §3
Series [6] relates to SNB-19. The series can be described thus: MTT cytotoxicity assay, human glioblastoma SNB-19. It is filed as cell-based. The following applies: for IC50: Homo sapiens, SNB-19, 72 h exposure, MTT, 95% confidence interval in brackets; for SI SNB-19 (selectivity index): ratio IC50 L929 / IC50 SNB-19. On the procedure: as §1, §2, §3
Details of series [7]: method as in PMID 25995830, PMID 20460521. The following applies: drawback limiting clinical applications; cited from earlier work.
The conditions of series [8]: cited from earlier work.
Where [9] appears, read: solvent per compound: IM1, IM3, IM4, IM5 CH2Cl2, IM2 DMSO, IM6 CH3OH, IM7 hexane.

The values below come from article PMC10096064, “Naphth[1,2-d]imidazoles Bioactive from β-Lapachone: Fluorescent Probes and Cytotoxic Agents to Cancer Cells” (Molecules, 2023).

“Also recorded” adds a separate entry of the source. Where two headings read alike, the source gives them in different places. Marks after values point to notes of the source that are not given here.

`CC1(C)CCc2c(c3ccccc3c3nc(-c4ccc([N+](=O)[O-])cc4)[nH]c23)O1` [IM6, 4,5-dihydro-6,6-dimethyl-6H-2-(4-nitrophenyl)-pyran[b-4,3]naphth[1,2-d]imidazole] returned a melting point of 259 to 260 °C. In series [1] (setting [9]), the “εAbs (molar absorptivity coefficient)” value is on record as 1.85 10^4 M^−1cm^−1 and the λmax amounted to 411 nm. For the same molecule, half-maximal inhibition in [2] (IC50) required 152 µM. In addition, in series [3], the IC50 is 21.1 µM and the “SI HCT-116 (selectivity index)” value worked out at 7.18. In [4], the “λemis (emission wavelength)” value is listed as 391 nm. Further, in series [5], the IC50 worked out at 13.7 µM and the “SI HL-60 (selectivity index)” value was found to be 11.09. Further, in series [6], inhibition was half-maximal at 22.3 µM (IC50) and the “SI SNB-19 (selectivity index)” value was found to be 6.81.
As to `CC1(C)CCC2=C(O1)c1ccccc1C(=O)C2=O` [β-lapachone, β-Lapachone], the water solubility result in series [7] is “low”.
In turn, `CC1(C)CCc2c(c3ccccc3c3nc(-c4ccccc4)[nH]c23)O1` [IM2, 4,5-dihydro-6,6-dimethyl-6H-2-(phenyl)-pyran[b-4,3]naphth[1,2-d]imidazole] displayed a melting point of 278 to 279 °C. Further, the “εAbs (molar absorptivity coefficient)” value in [1] was 24300 M⁻¹ cm⁻¹. Moreover, in [1] (setting [9]), the “εAbs (molar absorptivity coefficient)” value was 2.43 10^4 M^−1cm^−1 and the λmax came out at 342 nm. Besides, in [2], inhibition was half-maximal at 105 µM (IC50). Besides, in series [3], it took 21.7 µM to reach half-maximal inhibition (IC50) and the “SI HCT-116 (selectivity index)” value is on record as 4.83. Also, in [4], the “ΔST (Stokes shift)” value was 60 nm, the fluorescence emission intensity is 2.49 × 10^6 au and the “λemis (emission wavelength)” value is recorded as 402 nm. In addition, in series [5], the IC50 came out at 29.9 µM and the “SI HL-60 (selectivity index)” value is 3.50. Also, in series [6], the IC50 came out at 27 µM and the “SI SNB-19 (selectivity index)” value was 3.89.
As for `N=C(N)c1ccc(-c2cc3ccc(C(=N)N)cc3[nH]2)cc1` [DAPI, 4′,6-diamidino-2-phenylindole, reference compound], in series [4], the fluorescence emission intensity was 1.13 × 10^5 au and the “λemis (emission wavelength)” value was determined as 452 nm. Also, the λmax in series [8] (H2O, ref Farahat et al. (2017) [32]) is 343 ^d nm. In addition, the λabs in series [8] (general characteristic of DAPI stated in text, ref not given) is given as 340 nm.
In the case of `CC1(C)CCc2c(c3ccccc3c3nc(-c4ccc(O)cc4)[nH]c23)O1` [IM4, 4,5-dihydro-6,6-dimethyl-6H-2-(4-hidroxyphenyl)-pyran[b-4,3]naphth[1,2-d]imidazole], the “εAbs (molar absorptivity coefficient)” value in [1] was determined as 14800 M⁻¹ cm⁻¹. Besides, in series [1] (setting [9]), the “εAbs (molar absorptivity coefficient)” value is given as 1.48 10^4 M^−1cm^−1 and the λmax came to 344 nm. This molecule returned an IC50 in series [2] greater than 363 µM. In addition, in [3], the IC50 is 23 µM and the “SI HCT-116 (selectivity index)” value was greater than 15.76. In addition, in series [4], the “ΔST (Stokes shift)” value is 49 nm, the fluorescence emission intensity is 1.36 × 10^6 au and the “λemis (emission wavelength)” value came to 393 nm. For the same molecule, in series [5], it took 8.71 µM to reach half-maximal inhibition (IC50) and the “SI HL-60 (selectivity index)” value is listed as greater than 41.70. Besides, in series [6], the IC50 is 31.9 µM and the “SI SNB-19 (selectivity index)” value was greater than 11.38.
In turn, `CC1(C)CCc2c(c3ccccc3c3nc[nH]c23)O1` [IM1, 4,5-dihydro-6,6-dimethyl-6H-2-pyran[b-4,3]naphth[1,2-d]imidazole] gave a melting point of 255 to 259 °C. Moreover, in series [1] (setting [9]), the “εAbs (molar absorptivity coefficient)” value is on record as 0.61 10^4 M^−1cm^−1 and the λmax was 316 nm. For the same molecule, 186 µM corresponded to half-maximal inhibition in series [2] (IC50). For the same molecule, in series [3], it took 62.1 µM to reach half-maximal inhibition (IC50) and the “SI HCT-116 (selectivity index)” value amounted to 3.00. In [4], the “ΔST (Stokes shift)” value turned out to be 50 nm, the fluorescence emission intensity is given as 6.90 × 10^4 au and the “λemis (emission wavelength)” value is 366 nm. In series [5], the IC50 is 24.2 µM and the “SI HL-60 (selectivity index)” value is listed as 7.68. Also, in series [6], the midpoint of inhibition, the IC50, lay at 46.4 µM and the “SI SNB-19 (selectivity index)” value came out at 4.00.
`CC1(C)CCc2c(c3ccccc3c3nc(-c4ccccc4[N+](=O)[O-])[nH]c23)O1` [IM7, 4,5-dihydro-6,6-dimethyl-6H-2-(2-nitrophenyl)-pyran[b-4,3]naphth[1,2-d]imidazole] registered a melting point of 139 to 141 °C. For the same molecule, in series [1] (setting [9]), the “εAbs (molar absorptivity coefficient)” value is 1.35 10^4 M^−1cm^−1 and the λmax is on record as 337 nm. Besides, the IC50 in series [3] was found to be 35.1 µM. Besides, in [4], the “ΔST (Stokes shift)” value is 48 nm and the “λemis (emission wavelength)” value is 385 nm. In addition, the IC50 in series [5] is 14.9 µM. Besides, in [6], the IC50 is greater than 67 µM.
As to `CN(C)c1ccc(-c2nc3c([nH]2)c2c(c4ccccc43)OC(C)(C)CC2)cc1` [IM5, 4,5-dihydro-6,6-dimethyl-6H-2-(4-dimethylaminophenyl)-pyran[b-4,3]naphth[1,2-d]imidazole], the melting point was in the range of 182 to 184 °C. Further, the “εAbs (molar absorptivity coefficient)” value in [1] is 27100 M⁻¹ cm⁻¹. Also, in series [1] (setting [9]), the “εAbs (molar absorptivity coefficient)” value is reported as 2.71 10^4 M^−1cm^−1 and the λmax is given as 368 nm. In addition, in series [2], the IC50 was 52.8 µM. In series [3], inhibition was half-maximal at 44.1 µM (IC50) and the “SI HCT-116 (selectivity index)” value is 1.20. In [4], the “ΔST (Stokes shift)” value is on record as 54 nm, the fluorescence emission intensity is on record as 7.04 × 10^5 au and the “λemis (emission wavelength)” value is reported as 422 nm. Moreover, in series [5], the IC50 stood at 12.3 µM and the “SI HL-60 (selectivity index)” value was 4.28. Further, in [6], it took 21.1 µM to reach half-maximal inhibition (IC50) and the “SI SNB-19 (selectivity index)” value is listed as 2.51.
On to `CC1(C)CCc2c(c3ccccc3c3nc(-c4cccc5ccccc45)[nH]c23)O1` [IM3, 4,5-dihydro-6,6-dimethyl-6H-2-(naphthalenyl)-pyran[b-4,3]naphth[1,2-d]imidazole], for which the “εAbs (molar absorptivity coefficient)” value in series [1] was 15700 M⁻¹ cm⁻¹; in series [1] (setting [9]), 1.57 10^4 M^−1cm^−1. In series [1] (setting [9]), the λmax was 354 nm. Further, the “cell growth inhibition / cytotoxicity (in words)” value was “low growth inhibition; also recorded: low cytotoxicity” in series [3] (HCT-116, MTT, IC50 not calculated); “low growth inhibition; also recorded: low cytotoxicity” in series [5] (HL-60, MTT, IC50 not calculated); “low growth inhibition; also recorded: low cytotoxicity” in [6] (SNB-19, MTT, IC50 not calculated). In addition, in series [4], the “ΔST (Stokes shift)” value is 103 nm. Besides, the fluorescence emission intensity in series [4] was 1.41 × 10^6 au. The “λemis (emission wavelength)” value in series [4] is listed as 457 nm.
`COc1cccc2c1C(=O)c1c(O)c3c(c(O)c1C2=O)C[C@@](O)(C(=O)CO)C[C@@H]3O[C@H]1C[C@H](N)[C@H](O)[C@H](C)O1` [Doxorubicin, reference compound]: the IC50 amounted to 3.16 µM in series [2], 0.2 µM in series [3], 0.04 µM in [5] and 2.21 µM in [6]. In addition, in series [3], the “SI HCT-116 (selectivity index)” value amounted to 15.80. The “SI HL-60 (selectivity index)” value in [5] is listed as 79.00. Also, the “SI SNB-19 (selectivity index)” value in series [6] was determined as 1.43.
